Tests used:
[1] = target: T1, Peroxisome proliferator-activated receptor gamma (Homo sapiens, UniProt P37231)
T1 sequence (P37231 whole entry): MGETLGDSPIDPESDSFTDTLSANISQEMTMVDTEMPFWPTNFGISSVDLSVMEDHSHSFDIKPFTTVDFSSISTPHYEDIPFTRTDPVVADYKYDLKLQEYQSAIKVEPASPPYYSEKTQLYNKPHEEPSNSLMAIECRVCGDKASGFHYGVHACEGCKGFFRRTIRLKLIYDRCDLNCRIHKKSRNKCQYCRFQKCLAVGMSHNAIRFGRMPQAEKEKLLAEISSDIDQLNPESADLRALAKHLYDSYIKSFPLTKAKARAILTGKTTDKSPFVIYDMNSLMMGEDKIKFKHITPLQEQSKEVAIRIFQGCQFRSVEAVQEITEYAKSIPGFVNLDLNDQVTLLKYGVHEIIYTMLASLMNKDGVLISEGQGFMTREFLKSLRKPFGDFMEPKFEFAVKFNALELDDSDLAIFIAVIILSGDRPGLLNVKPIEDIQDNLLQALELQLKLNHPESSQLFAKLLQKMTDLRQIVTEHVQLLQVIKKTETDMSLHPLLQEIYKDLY
Description: Agonist activity at human PPARgamma in CV1 cells by GAL4 transactivation assay after 24 hrs

[2] = target: T2, Peroxisome proliferator-activated receptor alpha (Homo sapiens, UniProt Q07869)
T2 sequence (Q07869 whole entry): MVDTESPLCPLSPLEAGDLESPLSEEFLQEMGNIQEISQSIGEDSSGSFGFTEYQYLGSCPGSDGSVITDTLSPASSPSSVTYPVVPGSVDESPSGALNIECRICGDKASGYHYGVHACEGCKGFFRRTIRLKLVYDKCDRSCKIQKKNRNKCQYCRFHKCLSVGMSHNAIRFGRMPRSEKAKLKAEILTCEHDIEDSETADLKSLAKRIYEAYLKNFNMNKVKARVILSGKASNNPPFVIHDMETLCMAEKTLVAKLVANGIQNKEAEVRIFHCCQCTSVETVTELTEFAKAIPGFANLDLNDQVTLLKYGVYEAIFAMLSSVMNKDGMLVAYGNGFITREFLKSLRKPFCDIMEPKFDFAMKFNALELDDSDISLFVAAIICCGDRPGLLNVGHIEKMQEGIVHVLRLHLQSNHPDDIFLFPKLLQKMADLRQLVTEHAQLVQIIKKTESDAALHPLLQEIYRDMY
Description: Agonist activity at human PPARalpha in CV1 cells by GAL4 transactivation assay after 24 hrs

Structure (SMILES)	EC50 [1]	EC50 [2]
CCO[C@H](Cc1ccc(CCC(OC(=S)NCCc2ccccc2)c2ccccc2)cc1)C(=O)O (some centres undefined)	1.05 µM	2.77 µM
Cc1ccc(C)c(OCCCC(C)(C)C(=O)O)c1 [GEMFIBROZIL]	–	193 µM
CCO[C@@H](Cc1ccc(CCC(O)c2ccccc2)cc1)C(=O)O (some centres undefined)	0.3 µM	1.51 µM
CCO[C@@H](Cc1ccc(CCC(OC(=S)NCc2ccc(C(C)(C)C)cc2)c2ccccc2)cc1)C(=O)O (some centres undefined)	0.16 µM	3.27 µM
CCO[C@H](Cc1ccc(CCC(OC(=S)NCc2ccccc2)c2ccccc2)cc1)C(=O)O (some centres undefined)	0.35 µM	–
CCO[C@@H](Cc1ccc(CCC(OC(=O)NCc2ccccc2)c2ccccc2)cc1)C(=O)O (some centres undefined)	1.42 µM	6.05 µM
CCO[C@@H](Cc1ccc(CCC(OC(=S)NCCc2ccccc2)c2ccccc2)cc1)C(=O)O (some centres undefined)	0.49 µM	0.88 µM
CCO[C@H](Cc1ccc(CCC(OC(=S)NCc2ccc(C(C)(C)C)cc2)c2ccccc2)cc1)C(=O)O (some centres undefined)	0.14 µM	0.38 µM

Now from value to compound:

EC50 [1]	EC50 [2]	Structure (SMILES)
3.48 µM	3.94 µM	CCCNC(=S)OC(CCc1ccc(C[C@H](OCC)C(=O)O)cc1)c1ccccc1 (some centres undefined)
1.4 µM	1.47 µM	CCO[C@@H](Cc1ccc(CCCOC(=S)NCc2ccccc2)cc1)C(=O)O
4.58 µM	5.25 µM	CCO[C@@H](Cc1ccc(CCC(OC(=S)Nc2ccccc2)c2ccccc2)cc1)C(=O)O (some centres undefined)
1.06 µM	10.7 µM	CCO[C@@H](Cc1ccc(CCC(OC(=S)NCC2CCCCC2)c2ccccc2)cc1)C(=O)O (some centres undefined)
7.17 µM	6.21 µM	CCO[C@@H](Cc1ccc(OCC(OC(=S)NCc2ccccc2)c2ccccc2)cc1)C(=O)O (some centres undefined)
0.58 µM	–	CCO[C@@H](Cc1ccc(CCC(OC(=S)NCc2ccccc2)c2ccccc2)cc1)C(=O)O (some centres undefined)
5.39 µM	20.4 µM	CCNC(=S)OC(CCc1ccc(C[C@H](OCC)C(=O)O)cc1)c1ccccc1 (some centres undefined)
3.6 µM	7.26 µM	CCCCNC(=S)OC(CCc1ccc(C[C@H](OCC)C(=O)O)cc1)c1ccccc1 (some centres undefined)
